Assay results: patent publication US11459315B2, “Modulators of methyl modifying enzymes, compositions and uses thereof” (Constellation Pharmaceuticals, Inc., priority 2017, dated 2022)
Like-named read-outs stand apart in the source and are kept apart here.

Assays:
[1] = tested on: H3K27me3 mark in HeLa cells (EZH2); test: H3K27me3 Alpha Hela Assay (AlphaLISA); format: cell-based
Summary of the method: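 HeLa cells (1,000/well) treated with ten 3-fold compound doses for 72 h at 37 °C; lysates extracted and H3K27me3 detected by AlphaLISA with anti-K27me3 acceptor beads, biotinylated anti-H3 (3 nM) and streptavidin donor beads. EC50 from DMSO-normalized dose-response curves; duplicate plate assessed viability.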

[2] = biological target: T1, PRC2 containing wt EZH2 (Homo sapiens (Human), UniProt Q15910); test: EZH2 residence time assay (100-fold dilution of pre-formed enzyme-inhibitor complex); format: biochemical
T1 sequence (Q15910 whole entry): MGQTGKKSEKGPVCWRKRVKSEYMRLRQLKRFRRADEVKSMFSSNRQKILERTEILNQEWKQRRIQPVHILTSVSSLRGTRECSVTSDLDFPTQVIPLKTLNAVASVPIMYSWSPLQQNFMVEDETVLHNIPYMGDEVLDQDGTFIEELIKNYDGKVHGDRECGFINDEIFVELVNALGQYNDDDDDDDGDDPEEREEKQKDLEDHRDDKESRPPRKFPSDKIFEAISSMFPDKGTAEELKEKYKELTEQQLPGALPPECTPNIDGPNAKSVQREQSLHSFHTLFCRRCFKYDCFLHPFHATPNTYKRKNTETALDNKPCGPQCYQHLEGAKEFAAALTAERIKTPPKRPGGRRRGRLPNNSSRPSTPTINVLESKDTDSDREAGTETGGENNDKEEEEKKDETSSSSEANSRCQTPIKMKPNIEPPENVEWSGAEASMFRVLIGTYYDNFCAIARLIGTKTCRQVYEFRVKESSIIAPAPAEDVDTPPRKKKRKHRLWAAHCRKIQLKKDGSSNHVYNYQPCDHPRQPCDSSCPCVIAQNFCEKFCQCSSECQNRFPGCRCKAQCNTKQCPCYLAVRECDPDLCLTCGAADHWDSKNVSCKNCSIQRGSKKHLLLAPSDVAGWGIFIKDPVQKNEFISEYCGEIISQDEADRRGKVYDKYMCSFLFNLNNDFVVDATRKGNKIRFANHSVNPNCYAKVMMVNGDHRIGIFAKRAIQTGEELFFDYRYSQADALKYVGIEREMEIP
T1 sequence (O75530 whole entry partner): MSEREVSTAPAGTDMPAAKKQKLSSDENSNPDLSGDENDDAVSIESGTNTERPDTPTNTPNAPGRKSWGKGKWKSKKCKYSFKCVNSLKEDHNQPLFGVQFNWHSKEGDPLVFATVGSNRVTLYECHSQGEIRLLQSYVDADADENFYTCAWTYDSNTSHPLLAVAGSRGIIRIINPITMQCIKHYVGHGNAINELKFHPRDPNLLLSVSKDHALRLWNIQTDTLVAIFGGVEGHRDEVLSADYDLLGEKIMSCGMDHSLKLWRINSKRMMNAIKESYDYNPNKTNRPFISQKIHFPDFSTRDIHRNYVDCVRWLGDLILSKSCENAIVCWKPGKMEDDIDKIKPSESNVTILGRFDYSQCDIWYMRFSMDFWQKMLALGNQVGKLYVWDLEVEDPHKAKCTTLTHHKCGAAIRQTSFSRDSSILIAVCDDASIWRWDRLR
T1 sequence (Q15022 whole entry partner): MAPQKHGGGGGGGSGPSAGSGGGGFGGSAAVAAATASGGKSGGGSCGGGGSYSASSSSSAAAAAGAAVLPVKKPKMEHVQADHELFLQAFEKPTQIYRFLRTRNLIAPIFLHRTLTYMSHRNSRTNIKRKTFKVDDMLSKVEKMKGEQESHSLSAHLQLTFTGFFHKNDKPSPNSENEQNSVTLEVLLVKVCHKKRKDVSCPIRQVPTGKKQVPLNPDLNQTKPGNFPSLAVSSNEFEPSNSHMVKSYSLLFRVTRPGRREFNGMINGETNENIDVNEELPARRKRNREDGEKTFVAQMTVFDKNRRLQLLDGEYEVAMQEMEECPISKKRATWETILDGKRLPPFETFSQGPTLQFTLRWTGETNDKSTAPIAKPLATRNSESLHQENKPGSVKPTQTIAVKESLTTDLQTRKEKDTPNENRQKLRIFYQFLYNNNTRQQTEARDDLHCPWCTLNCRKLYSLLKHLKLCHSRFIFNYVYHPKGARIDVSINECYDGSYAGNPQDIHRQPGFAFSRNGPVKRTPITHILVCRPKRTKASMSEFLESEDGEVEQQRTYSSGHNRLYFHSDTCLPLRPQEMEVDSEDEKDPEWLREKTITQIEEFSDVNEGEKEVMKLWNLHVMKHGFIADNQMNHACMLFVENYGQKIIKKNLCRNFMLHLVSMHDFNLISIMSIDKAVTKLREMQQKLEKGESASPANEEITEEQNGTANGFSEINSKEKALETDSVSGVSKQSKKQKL
T1 sequence (Q09028 whole entry partner): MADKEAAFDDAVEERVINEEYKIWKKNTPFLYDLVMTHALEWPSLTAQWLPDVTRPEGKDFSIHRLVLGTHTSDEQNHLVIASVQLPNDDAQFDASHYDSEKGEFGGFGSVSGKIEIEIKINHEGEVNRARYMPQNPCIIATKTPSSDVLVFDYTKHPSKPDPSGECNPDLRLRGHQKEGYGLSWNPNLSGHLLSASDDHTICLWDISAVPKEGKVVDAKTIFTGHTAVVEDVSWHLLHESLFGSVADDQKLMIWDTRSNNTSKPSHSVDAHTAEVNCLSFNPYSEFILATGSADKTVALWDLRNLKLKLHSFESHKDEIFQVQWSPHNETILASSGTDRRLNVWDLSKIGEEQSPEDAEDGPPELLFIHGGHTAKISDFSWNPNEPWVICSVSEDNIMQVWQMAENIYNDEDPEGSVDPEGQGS
T1 sequence (Q6ZN18 whole entry partner): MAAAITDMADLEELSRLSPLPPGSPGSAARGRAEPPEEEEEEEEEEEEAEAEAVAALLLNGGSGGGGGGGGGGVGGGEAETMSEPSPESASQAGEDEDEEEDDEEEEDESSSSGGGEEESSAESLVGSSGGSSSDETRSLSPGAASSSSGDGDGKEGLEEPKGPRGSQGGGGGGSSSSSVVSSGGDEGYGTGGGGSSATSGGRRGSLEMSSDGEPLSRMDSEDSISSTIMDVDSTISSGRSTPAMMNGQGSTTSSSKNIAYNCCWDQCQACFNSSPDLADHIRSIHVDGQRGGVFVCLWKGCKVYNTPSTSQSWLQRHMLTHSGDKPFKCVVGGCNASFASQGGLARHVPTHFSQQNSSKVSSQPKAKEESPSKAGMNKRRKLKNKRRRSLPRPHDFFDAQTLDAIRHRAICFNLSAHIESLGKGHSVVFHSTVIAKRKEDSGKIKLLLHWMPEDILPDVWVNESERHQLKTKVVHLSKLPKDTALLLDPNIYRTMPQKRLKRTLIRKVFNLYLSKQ
Procedure: EZH2 residence time assay: Compound residence times were assessed by monitoring the recovery of enzyme activity following a 100-fold dilution of pre-formed enzyme-inhibitor complex (dilution reaction), and comparing it to the activity of an undiluted control with the same final concentrations of all reagents (control reaction). Enzyme activity was measured by incorporation of ^3H-SAM into a biotinylated H3 peptide. […] For the control reaction, 0.202 nM PRC2 was pre-incubated with 1 μM activating peptide, 1.01 μM SAM, 1.01 μM ^3H-SAM, and compound at 6.06 times its Ki for 2 h in 138.6 μL of buffer, then the reaction was initiated by the addition of 1.4 μL 500 μM substrate peptide in water. Reactions were quenched at various time points spanning up to 10 hours, by transferring 8 μL aliquots from the reaction vessel to a plate containing 8 μL per well of STOP solution (50 mM Tris pH 8.5, 200 mM EDTA, 2 mM SAH). After the last time point, 12 μL of the quenched solutions were transferred to a streptavidin coated FlashPlate (PerkinElmer) containing 40 μL per well of STOP solution, incubated 1-8 h, washed, and read in a TopCount plate reader (PerkinElmer). A custom script was used to fit control reaction progress data to a straight line and dilution reaction progress data:
Where y is the product formed, t is the reaction time, vi is the initial velocity, vs is the steady state velocity, and kobs is the rate constant for the transition from the initial velocity phase of the curve to the steady state velocity phase of the curve. In fitting the dilution reaction progress data, vs was constrained to the slope of the line fitted to the control reaction progress data. The fitted value of kobs was then transformed into residence time:
Where τ is residence time, Ki is the inhibition constant, [EI] is the calculated equilibrium concentration of enzyme-inhibitor complex, [E] is the calculated equilibrium concentration of free enzyme, and [I] is the calculated equilibrium concentration of free inhibitor.

[3] = biological target: T1, PRC2 containing wt EZH2; test: EZH2 biochemical assay (IC50), 3H-SAM incorporation into biotinylated H3 peptide; details: 30 pM PRC2 containing wt EZH2; 3-5 h pre-incubation; read-out: EZH2 (IC50)
Summary of the method: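 The PRC2 pentamer with wt EZH2 (30 pM) was pre-incubated for 3-5 h with 450 nM SAM plus 450 nM ³H-SAM, 2 µM H3K27me3 activating peptide and compound (0.8% DMSO) in Tris at pH 8.5. Biotinylated H3K27me1 peptide was added and the reaction ran 18-22 h at RT. Incorporated ³H was captured on streptavidin plates, and IC50 was taken from a four-parameter fit.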

[4] = HeLa cell assay, Table 3 classes, read-out: EC50 Cellular Activity
[5] = Homo sapiens, HeLa, HeLa cell assay, Table 3 classes, read-out: EC50 Cellular Activity
[6] = HeLa cells, 72 hrs, read-out: EZH2 Cell H3K27me3 Alpha HeLa (EC50 K27me3)

Structure (SMILES)	EC50 [1, 4]	residence time [2]	EC50 [1, 5]	further results
COc1cc(C)[nH]c(=O)c1CNC(=O)c1c(C)n([C@H](C)C2CCC(NC3COC3)CC2)c2ccccc12 (single isomer, unassigned) [drawing 208]	25 to 125 nM	C (a t value of greater than 0.5 hours but less or equal than 5 hours)		
CSc1cc(C)[nH]c(=O)c1CNC(=O)c1c(C)n([C@H](C)C23CC(NC4COC4)(C2)C3)c2ccccc12 [drawing 234]		300 to 2100 min	< 5 nM	
CSc1cc(C)[nH]c(=O)c1CNC(=O)c1c(C)n([C@H](C)C2CCN(CC(C)(C)O)CC2)c2ccccc12 [drawing 240]		300 to 2100 min	25 to 125 nM	
Cc1cc(C)c(CNC(=O)c2c(C)n([C@H](C)C3CCC(NC4COC4)CC3)c3ccccc23)c(=O)[nH]1 (single isomer, unassigned) [drawing 209]	> 125 nM			residence time ([2]; read-out: Residence Time): < 30 min
Cc1cc(Cl)c(CNC(=O)c2c(C)n([C@H](C)C3OCC(NC4(C)COC4)CO3)c3ccccc23)c(=O)[nH]1 (single isomer, unassigned) [drawing 226]	5 to 25 nM	B (a t value of greater than 5 hours but less or equal than 35 hours)		
COc1cc(C)[nH]c(=O)c1CNC(=O)c1c(C)n([C@H](C)C2CCC(N3CC(OC)C3)CC2)c2ccccc12 (single isomer, unassigned) [drawing 217]		< 30 min	> 125 nM	
COC1CN(C2CCC([C@@H](C)n3c(C)c(C(=O)NCc4c(Cl)cc(C)[nH]c4=O)c4ccccc43)CC2)C1 (single isomer, unassigned)		30 to 300 min	5 to 25 nM	
CSc1cc(C)[nH]c(=O)c1CNC(=O)c1c(C)n([C@H](C)C2OCC(N(C)C)CO2)c2ccccc12 (single isomer, unassigned) [drawing 231]	> 125 nM	D (a t value of less or equal than 0.5 hours)		
COC1CN(C2CCC([C@@H](C)n3c(C)c(C(=O)NCc4c(SC)cc(C)[nH]c4=O)c4ccccc43)CC2)C1 (single isomer, unassigned) [drawing 220]	5 to 25 nM	C (a t value of greater than 0.5 hours but less or equal than 5 hours)		
CSc1cc(C)[nH]c(=O)c1CNC(=O)c1c(C)n([C@H](C)C2CCOCC2)c2ccccc12 [drawing 247]		30 to 300 min	< 5 nM	
CSc1cc(C)[nH]c(=O)c1CNC(=O)c1c(C)n([C@H](C)C2CCN(CC(F)(F)F)CC2)c2ccccc12 [drawing 243]		300 to 2100 min	< 5 nM	
COc1cc(C)[nH]c(=O)c1CNC(=O)c1c(C)n([C@H](C)C2CCN(CC(C)(C)O)CC2)c2ccccc12		< 30 min	> 125 nM	
CSc1cc(C)[nH]c(=O)c1CNC(=O)c1c(C)n([C@H](C)C2CCC(N3CC(F)C3)CC2)c2ccccc12 (single isomer, unassigned) [drawing 254]		A (value of greater than 35 hours)	< 5 nM	
Cc1cc(Cl)c(CNC(=O)c2c(C)n([C@H](C)C3OCC(N(C)C)CO3)c3ccccc23)c(=O)[nH]1 (single isomer, unassigned) [drawing 229]	> 125 nM			residence time ([2]; read-out: Residence Time): < 30 min
CSc1cc(C)[nH]c(=O)c1CNC(=O)c1c(C)n([C@H](C)C2CCC(NC3COC3)CC2)c2ccccc12 (single isomer, unassigned) [drawing 214]	25 to 125 nM	C (a t value of greater than 0.5 hours but less or equal than 5 hours)		
Cc1cc(C)c(CNC(=O)c2c(C)n([C@H](C)C3CCC(NC4(C)COC4)CC3)c3ccccc23)c(=O)[nH]1 (single isomer, unassigned) [drawing 203]	25 to 125 nM	D (a t value of less or equal than 0.5 hours)		

Structure (SMILES)	EC50 [1, 4]	residence time [2]	EC50 [1, 5]	further results
Cc1cc(C)c(CNC(=O)c2c(C)n([C@H](C)C34CC(NC5COC5)(C3)C4)c3ccccc23)c(=O)[nH]1			25 to 125 nM	residence time ([2]; read-out: Residence Time): < 30 min
Cc1cc(Cl)c(CNC(=O)c2c(C)n([C@H](C)C3OCC(NC4(C)COC4)CO3)c3ccccc23)c(=O)[nH]1 (single isomer, unassigned) [drawing 225]	> 125 nM	D (a t value of less or equal than 0.5 hours)		
COc1cc(C)[nH]c(=O)c1CNC(=O)c1c(C)n([C@H](C)C2CCN(CC(F)(F)F)CC2)c2ccccc12			5 to 25 nM	residence time ([2]; read-out: Residence Time): 30 to 300 min
Cc1cc(Cl)c(CNC(=O)c2c(C)n([C@H](C)C3OCC(N(C)C)CO3)c3ccccc23)c(=O)[nH]1 (single isomer, unassigned) [drawing 230]	25 to 125 nM	D (a t value of less or equal than 0.5 hours)		
CSc1cc(C)[nH]c(=O)c1CNC(=O)c1c(C)n([C@H](C)C2CCC(N3CC(OC(F)F)C3)CC2)c2ncccc12 (single isomer, unassigned)			< 5 nM	residence time ([2]; read-out: Residence Time): 300 to 2100 min
CSc1cc(C)[nH]c(=O)c1CNC(=O)c1c(C)n([C@H](C)C2OCC(NC(C)(C)C)CO2)c2ccccc12 (single isomer, unassigned) [drawing 223]	25 to 125 nM	D (a t value of less or equal than 0.5 hours)		
Cc1cc(Cl)c(CNC(=O)c2c(C)n([C@H](C)C3CCC(NC4COC4)CC3)c3ccccc23)c(=O)[nH]1 (single isomer, unassigned) [drawing 211]	> 125 nM			residence time ([2]; read-out: Residence Time): < 30 min
Cc1cc(C)c(CNC(=O)c2c(C)n([C@H](C)C3CCN(CC(C)(C)O)CC3)c3ccccc23)c(=O)[nH]1		< 30 min	> 125 nM	
CSc1cc(C)[nH]c(=O)c1CNC(=O)c1c(C)n([C@H](C)C2CCC(NC3(C)CCOC3)CC2)c2ccccc12 (single isomer, unassigned) [drawing 269]	5 to 25 nM	> 2100 min		
CSc1cc(C)[nH]c(=O)c1CNC(=O)c1c(C)n([C@H](C)C2CCC(NC3COC3)CC2)c2ccccc12 (single isomer, unassigned) [drawing 213]	< 5 nM	A (value of greater than 35 hours)		
CSc1cc(C)[nH]c(=O)c1CNC(=O)c1c(C)n([C@H](C)C2CCN(C3CC3)CC2)c2ncccc12 [drawing 256]		300 to 2100 min	< 5 nM	
COc1cc(C)[nH]c(=O)c1CNC(=O)c1c(C)n([C@H](C)C2CCC(NC3COC3)CC2)c2ccccc12 (single isomer, unassigned) [drawing 207]	> 125 nM			residence time ([2]; read-out: Residence Time): < 30 min
CSc1cc(C)[nH]c(=O)c1CNC(=O)c1c(C)n([C@H](C)C2CCC(N3CC(OC(F)(F)F)C3)CC2)c2ncncc12 (single isomer, unassigned) [123 (isomer 2)]				IC50 [3]: < 0.5 nM; EC50 [1, 6]: < 10 nM
CSc1cc(C)[nH]c(=O)c1CNC(=O)c1c(C)n([C@H](C)C2CCC(Oc3cnn(C)c3)CC2)c2ncccc12 (single isomer, unassigned) [147 (isomer 2)]				IC50 [3]: < 0.5 nM; EC50 [1, 6]: < 10 nM
CSc1cc(C)[nH]c(=O)c1CNC(=O)c1c(C)n([C@H](C)C2CCC(NC3(CF)COC3)CC2)c2ncccc12 (single isomer, unassigned) [155 (isomer 1)]				IC50 [3]: < 0.5 nM; EC50 ([1]; Homo sapiens, HeLa, 72 h, HeLa cells, 72 hrs, read-out: EZH2 Cell H3K27me3 Alpha HeLa (EC50 K27me3)): < 10 nM
